In one data set the test system is L. major promastigote. The data set is described as follows: Primary screening resazurin viability assay, L. major promastigotes. The following applies: Leishmania major; promastigotes; 10-point dose response, 2-fold dilutions from 20 µM; read-out: L. major EC50 promastigote. It is filed as cell-based, Leishmania major. The protocol: L. major MHOM/IL/81/FRIEDLIN and L. donovani MHOM/ET/67/HU3 promastigotes were cultivated at 28°C in axenic M199 culture medium (Welgene, S. Korea) supplemented with 10% heat-inactivated fetal bovine serum (FBS) (Gibco, United States) and 1% streptomycin/penicillin (Gibco, United States).
After compound addition to the assay plate (Evotec™ 384-well microplate, Germany), 20,000 L. major promastigote parasites from an exponential phase culture (∼10^7 parasites/mL) were diluted in M199, seeded in 50 µL per well using FlexDrop™ and incubated at 28°C for 28 hours, followed by the addition of 5 mM resazurin sodium salt (Sigma R7017, United States) and further incubation for 20 hours at 28°C. After a 48-hour exposure to compounds, the reference drug (EtBr) or control (1% DMSO), the parasites were fixed with 2% paraformaldehyde (PFA) and plates were read in Victor3™ (Perkin Elmer) at 530 nm (excitation) and 590 nm (emission). This fixation step is not necessary for resazurin readout, but allows flexibility in the automation schedule and increases assay robustness by decreasing metabolic variability between populations across wells and plates.
The effect of compounds on Leishmania viability was assessed by fluorometric measurement of resazurin reduction. […] Reference compounds for antileishmanial activity (EtBr, amphotericin B, miltefosine and paromomycin) were tested (Fig. 1B) as a step of the validation process. […] Assay validation was performed on three separate days using 33 microplates (384 wells/plate) containing only controls. […] After assay validation, we screened a 4,000-compound library containing a number of compounds with known pharmacological properties. […] This assay was done in duplicate and results of each concentration assay are represented as individual graphs in Fig. 1D.

A short description of data set [1]: Microsomal stability assay, human liver microsomes. In kind it is in vitro ADME. The following applies: 2 µM compound, 0.5 mg/mL microsomes; for parent compound remaining after 30 minutes, human liver microsomes: NADPH. The procedure:
Compounds at a concentration of 2 µM in 0.2% DMSO were incubated with 0.5 mg/mL rat (Sprague-Dawley Rat, BD Gentest) and human (human pool donors, BD Gentest) liver microsomes in potassium phosphate buffer in a reaction started by the addition of NADPH and stopped either immediately or at 5, 10, 30, 60 or 120 minutes for a precise estimate of microsomal stability. The corresponding loss of the parent compound was determined by a quadrupole liquid chromatography-mass spectrometry (LC-MS) with diode-array detection (Agilent 1200, Agilent Technology). The samples were passed through trapping cartridges (Security Guard Cartridge, Gemini C18, 4×2.0 mm, 3 µm, Phenomenex) followed by an analytical column (Gemini C18, 50×2.0 mm, 3 µm, Phenomenex). Positive electrospray ionization (ESI+) was employed for this analysis. The mobile phases A (water with 0.1% formic acid) and B (acetonitrile with 0.1% formic acid) were used at a flow rate of 0.3 mL/min. Gradient elution started with 95% mobile phase A and 5% mobile phase B. Elution was changed to a linear gradient until 50% A and B for 1 min. This condition was held for 0.5 min, then increased to 95% B over 0.5 min, and held for 1.5 min. Then, the elution gradient returned to 95% A and 5% B over 0.5 min, was held for the remaining 3.5 min. The percentage of the remaining compound was calculated by comparison with the initial quantity at 0 min. Half-life was calculated based on first-order reaction kinetics.

The next data set concerns the target CYP3A4 (Homo sapiens, UniProt P08684). In words: CYP450 inhibition assay, fluorescent probe BFC. The following applies: for IC50: individual human P450s, eight-point curve. It is filed as in vitro ADME. The protocol:
(§1) Individual fluorescent probe substrates were used with individual rhCYP isozymes and fluorescence detection according to a previously published method. Probe substrates were 7-benzyloxy-4-(trifluoromethyl)-coumarin (BFC) for CYP3A4 and 3-[2-(N,N-diethyl-N-methylammonium)ethyl]-7-methoxy-4-methylcoumarin (AMMC) for CYP2D6 in 0.5% DMSO. IC50 was determined using an eight-point concentration curve with three-fold serial dilutions. Victor3™ (Perkin Elmer) was used for quantification in the fluorescent method (Perkin Elmer Life and Analytical Sciences).

The target in the next data set is CYP2D6 (Homo sapiens, UniProt P10635). The data set is described as follows: CYP450 inhibition assay, fluorescent probe AMMC. In kind it is in vitro ADME. The following applies: for IC50: individual human P450s, eight-point curve. The protocol:
as §1

CYP2D6, sequence (P10635 whole entry): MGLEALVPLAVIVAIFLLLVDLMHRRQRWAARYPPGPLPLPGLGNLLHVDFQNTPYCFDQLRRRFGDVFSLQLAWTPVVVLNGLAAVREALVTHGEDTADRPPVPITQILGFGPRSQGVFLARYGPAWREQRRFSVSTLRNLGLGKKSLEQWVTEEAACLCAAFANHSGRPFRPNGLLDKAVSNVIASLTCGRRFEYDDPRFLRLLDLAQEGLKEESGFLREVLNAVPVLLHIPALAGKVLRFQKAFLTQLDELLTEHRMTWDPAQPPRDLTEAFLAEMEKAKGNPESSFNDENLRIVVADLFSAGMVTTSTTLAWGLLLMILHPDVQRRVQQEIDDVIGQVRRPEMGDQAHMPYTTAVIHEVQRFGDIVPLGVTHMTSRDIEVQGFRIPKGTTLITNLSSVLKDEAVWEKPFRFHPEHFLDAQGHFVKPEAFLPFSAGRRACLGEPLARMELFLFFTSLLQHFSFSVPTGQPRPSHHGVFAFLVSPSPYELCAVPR
CYP3A4, sequence (P08684 whole entry): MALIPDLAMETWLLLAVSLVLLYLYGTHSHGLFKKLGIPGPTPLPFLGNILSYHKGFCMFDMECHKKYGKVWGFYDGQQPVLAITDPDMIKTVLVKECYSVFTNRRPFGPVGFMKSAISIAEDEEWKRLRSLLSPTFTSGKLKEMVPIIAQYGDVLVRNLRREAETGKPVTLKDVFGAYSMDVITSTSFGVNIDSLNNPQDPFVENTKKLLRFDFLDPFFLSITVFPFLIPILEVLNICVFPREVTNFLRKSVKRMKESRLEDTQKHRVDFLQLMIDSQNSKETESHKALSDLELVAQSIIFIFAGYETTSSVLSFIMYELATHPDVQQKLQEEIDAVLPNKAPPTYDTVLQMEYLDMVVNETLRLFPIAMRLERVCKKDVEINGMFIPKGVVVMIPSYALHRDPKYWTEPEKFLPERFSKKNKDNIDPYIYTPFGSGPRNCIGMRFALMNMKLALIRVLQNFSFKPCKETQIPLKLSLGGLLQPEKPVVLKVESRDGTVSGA

Regarding `COc1cc(/C=N/NC(=O)c2cccc(C)c2O)ccc1OCc1ccccc1` [CA272], the EC50 in the data set with L. major promastigote was 2700 nM; at CYP3A4, 3.41 µM; at CYP2D6, over 10 µM. In addition, in data set [1], the “parent compound remaining after 30 minutes, human liver microsomes” value worked out at 77.8%. In data set [1] (human, liver microsomes, first-order kinetics, read-out: theoretical half-life, human liver microsomes), the half-life at 2 µM is 79.4 min. The values for the IC50 against CYP3A4 and against CYP2D6 were 3.41 µM and over 10 µM, respectively.

In the case of `Cc1nc2c(Cl)cccc2c(O)c1CN1CCCCC1C` (centres unmarked) [CH872], the values for the EC50 with L. major promastigote, at CYP3A4 and at CYP2D6 were 100 nM, over 10 µM and over 10 µM, respectively. The “parent compound remaining after 30 minutes, human liver microsomes” value in data set [1] was 99.6%. Also, in data set [1] (first-order kinetics), the “theoretical half-life, human liver microsomes” value is reported as “long”. Besides, the IC50 at CYP3A4 and against CYP2D6 was over 10 µM throughout.
